Activity calls are given as the source filed them. No rule for the calls is given here. Non-standard residues stand in square brackets, D forms with d. Residues, ends and D or L forms follow the SMILES beside them. hArg = N=C(N)NCCCC[C@H](N)C(=O)O; Agb = N=C(N)NCC[C@H](N)C(=O)O; Agp = N=C(N)NC[C@H](N)C(=O)O; Orn = NCCC[C@H](N)C(=O)O; Dab = NCC[C@H](N)C(=O)O; Dap = NC[C@H](N)C(=O)O

In experiment [1] the test system is Staphylococcus aureus. Nature of the experiment: Antibiofilm activity against methicillin-resistant Staphylococcus aureus assessed as inhibition of biofilm formation incubated for overnight by crystal violet staining based microtiter plate assay. It is filed as functional, organism-based.
The test system of experiment [2] is Staphylococcus aureus. Nature of the experiment: Antibiofilm activity against methicillin-resistant Staphylococcus aureus assessed as inhibition of biofilm formation by measuring residual biofilm growth incubated for overnight at 10-fold dilution by crystal violet staining based microtiter plate assay relative to control. It is filed as functional.
The test system of experiment [3] is Staphylococcus aureus. The experiment in a line: Antibacterial activity against methicillin-resistant Staphylococcus aureus assessed as alteration in bacterial growth incubated for overnight by microtiter plate based spectrophotometric analysis. It counts as functional, organism-based.

With `CC[C@H](C)[C@H](NC(=O)[C@H](CC(C)C)NC(=O)[C@H](CCCNC(=N)N)NC(=O)[C@@H](N)C(C)C)C(=O)N[C@@H](CCCN)C(=O)N[C@@H](C)C(=O)N[C@H](C(=O)N[C@@H](CCCNC(=N)N)C(=O)N[C@H](C(=O)N[C@@H](Cc1c[nH]c2ccccc12)C(=O)N[C@@H](CCCNC(=N)N)C(=O)N[C@@H](CCCNC(=N)N)C(N)=O)[C@@H](C)CC)C(C)C` (H-VRLI[Orn]AVRIWRR-NH2), the inhibition entry in experiment [1] is “Dose-dependent effect”. Moreover, the “residual biofilm growth (% of control)” value in experiment [2] was 103%. In addition, the outcome in experiment [3] was Active.

With `CC[C@H](C)[C@H](NC(=O)[C@H](CC(C)C)NC(=O)[C@H](CCCNC(=N)N)NC(=O)[C@@H](N)C(C)C)C(=O)N[C@@H](CCCCNC(=N)N)C(=O)N[C@@H](C)C(=O)N[C@H](C(=O)N[C@@H](CCCNC(=N)N)C(=O)N[C@H](C(=O)N[C@@H](Cc1c[nH]c2ccccc12)C(=O)N[C@@H](CCCNC(=N)N)C(=O)N[C@@H](CCCNC(=N)N)C(N)=O)[C@@H](C)CC)C(C)C` (H-VRLI[hArg]AVRIWRR-NH2), in experiment [1], the inhibition result is “Dose-dependent effect”. Also, the “residual biofilm growth (% of control)” value in experiment [2] was determined as 110.4%. Moreover, the outcome in experiment [3] was Active.

For the molecule `CC[C@H](C)[C@H](NC(=O)[C@H](CCCNC(=N)N)NC(=O)[C@@H](NC(=O)[C@H](C)NC(=O)[C@@H](NC(=O)[C@H](CCNC(=N)N)NC(=O)[C@H](CC(C)C)NC(=O)[C@H](CCCNC(=N)N)NC(=O)[C@@H](N)C(C)C)C(C)C)C(C)C)C(=O)N[C@@H](Cc1c[nH]c2ccccc12)C(=O)N[C@@H](CCCNC(=N)N)C(=O)N[C@@H](CCCNC(=N)N)C(N)=O` (H-VRL[Agb]VAVRIWRR-NH2), the inhibition result in experiment [1] was “Dose-dependent effect”. For the same molecule, the “residual biofilm growth (% of control)” value in experiment [2] is 98.5%. In experiment [3], the result was Active.

In the case of `CC[C@H](C)[C@H](NC(=O)[C@H](CCCNC(=N)N)NC(=O)[C@@H](NC(=O)[C@H](C)NC(=O)[C@@H](NC(=O)[C@H](CNC(=N)N)NC(=O)[C@H](CC(C)C)NC(=O)[C@H](CCCNC(=N)N)NC(=O)[C@@H](N)C(C)C)C(C)C)C(C)C)C(=O)N[C@@H](Cc1c[nH]c2ccccc12)C(=O)N[C@@H](CCCNC(=N)N)C(=O)N[C@@H](CCCNC(=N)N)C(N)=O` (H-VRL[Agp]VAVRIWRR-NH2), in experiment [1], the inhibition result was “Dose-dependent effect”. The “residual biofilm growth (% of control)” value in experiment [2] worked out at 104.1%. Moreover, the result in experiment [3] was Active.

`CC[C@H](C)[C@H](NC(=O)[C@H](CCCNC(=N)N)NC(=O)[C@@H](NC(=O)[C@H](C)NC(=O)[C@@H](NC(=O)[C@H](CCN)NC(=O)[C@H](CC(C)C)NC(=O)[C@H](CCCNC(=N)N)NC(=O)[C@@H](N)C(C)C)C(C)C)C(C)C)C(=O)N[C@@H](Cc1c[nH]c2ccccc12)C(=O)N[C@@H](CCCNC(=N)N)C(=O)N[C@@H](CCCNC(=N)N)C(N)=O` (H-VRL[Dab]VAVRIWRR-NH2): in experiment [1], the inhibition entry was “Dose-dependent effect”. For the same molecule, the “residual biofilm growth (% of control)” value in experiment [2] is listed as 103.3%. The result in experiment [3] was Active.

For the molecule `CC[C@H](C)[C@H](NC(=O)[C@H](CCCNC(=N)N)NC(=O)[C@@H](NC(=O)[C@H](C)NC(=O)[C@@H](NC(=O)[C@H](CN)NC(=O)[C@H](CC(C)C)NC(=O)[C@H](CCCNC(=N)N)NC(=O)[C@@H](N)C(C)C)C(C)C)C(C)C)C(=O)N[C@@H](Cc1c[nH]c2ccccc12)C(=O)N[C@@H](CCCNC(=N)N)C(=O)N[C@@H](CCCNC(=N)N)C(N)=O` (H-VRL[Dap]VAVRIWRR-NH2), the inhibition entry in experiment [1] is “Dose-dependent effect”. Also, in experiment [2], the “residual biofilm growth (% of control)” value was found to be 108.3%. Moreover, in experiment [3], the result was Active.

In the case of `CC[C@H](C)[C@H](NC(=O)[C@H](CCCNC(=N)N)NC(=O)[C@@H](NC(=O)[C@H](C)NC(=O)[C@@H](NC(=O)[C@H](CCCN)NC(=O)[C@H](CC(C)C)NC(=O)[C@H](CCCNC(=N)N)NC(=O)[C@@H](N)C(C)C)C(C)C)C(C)C)C(=O)N[C@@H](Cc1c[nH]c2ccccc12)C(=O)N[C@@H](CCCNC(=N)N)C(=O)N[C@@H](CCCNC(=N)N)C(N)=O` (H-VRL[Orn]VAVRIWRR-NH2), the inhibition result in experiment [1] was “Dose-dependent effect”. The “residual biofilm growth (% of control)” value in experiment [2] is 36.9%. In experiment [3], the outcome was Active.

In the case of `CC[C@H](C)[C@H](NC(=O)[C@H](CCCNC(=N)N)NC(=O)[C@@H](NC(=O)[C@H](C)NC(=O)[C@@H](NC(=O)[C@H](CCCCNC(=N)N)NC(=O)[C@H](CC(C)C)NC(=O)[C@H](CCCNC(=N)N)NC(=O)[C@@H](N)C(C)C)C(C)C)C(C)C)C(=O)N[C@@H](Cc1c[nH]c2ccccc12)C(=O)N[C@@H](CCCNC(=N)N)C(=O)N[C@@H](CCCNC(=N)N)C(N)=O` (H-VRL[hArg]VAVRIWRR-NH2), the inhibition entry in experiment [1] is “Dose-dependent effect”. In experiment [2], the “residual biofilm growth (% of control)” value turned out to be 107.6%. Further, in experiment [3], the result was Active.

For the molecule `CC[C@H](C)[C@H](NC(=O)[C@H](CCCNC(=N)N)NC(=O)[C@@H](NC(=O)[C@H](C)NC(=O)[C@@H](NC(=O)[C@@H](NC(=O)[C@H](CCNC(=N)N)NC(=O)[C@H](CCCNC(=N)N)NC(=O)[C@@H](N)C(C)C)[C@@H](C)CC)C(C)C)C(C)C)C(=O)N[C@@H](Cc1c[nH]c2ccccc12)C(=O)N[C@@H](CCCNC(=N)N)C(=O)N[C@@H](CCCNC(=N)N)C(N)=O` (H-VR[Agb]IVAVRIWRR-NH2), the inhibition result in experiment [1] was “Dose-dependent effect”. For the same molecule, the “residual biofilm growth (% of control)” value in experiment [2] came out at 99.8%. The outcome in experiment [3] was Active.

Regarding `CC[C@H](C)[C@H](NC(=O)[C@H](CCCNC(=N)N)NC(=O)[C@@H](NC(=O)[C@H](C)NC(=O)[C@@H](NC(=O)[C@@H](NC(=O)[C@H](CNC(=N)N)NC(=O)[C@H](CCCNC(=N)N)NC(=O)[C@@H](N)C(C)C)[C@@H](C)CC)C(C)C)C(C)C)C(=O)N[C@@H](Cc1c[nH]c2ccccc12)C(=O)N[C@@H](CCCNC(=N)N)C(=O)N[C@@H](CCCNC(=N)N)C(N)=O` (H-VR[Agp]IVAVRIWRR-NH2), in experiment [1], the inhibition result is “Dose-dependent effect”. Also, the “residual biofilm growth (% of control)” value in experiment [2] is listed as 102.2%. Also, in experiment [3], the outcome was Active.

As to `CC[C@H](C)[C@H](NC(=O)[C@H](CCCNC(=N)N)NC(=O)[C@@H](NC(=O)[C@H](C)NC(=O)[C@@H](NC(=O)[C@@H](NC(=O)[C@H](CCN)NC(=O)[C@H](CCCNC(=N)N)NC(=O)[C@@H](N)C(C)C)[C@@H](C)CC)C(C)C)C(C)C)C(=O)N[C@@H](Cc1c[nH]c2ccccc12)C(=O)N[C@@H](CCCNC(=N)N)C(=O)N[C@@H](CCCNC(=N)N)C(N)=O` (H-VR[Dab]IVAVRIWRR-NH2), in experiment [1], the inhibition result is “Dose-dependent effect”. Further, the “residual biofilm growth (% of control)” value in experiment [2] worked out at 48.6%. In addition, in experiment [3], the result was Active.

In the case of `CC[C@H](C)[C@H](NC(=O)[C@H](CCCNC(=N)N)NC(=O)[C@@H](NC(=O)[C@H](C)NC(=O)[C@@H](NC(=O)[C@@H](NC(=O)[C@H](CN)NC(=O)[C@H](CCCNC(=N)N)NC(=O)[C@@H](N)C(C)C)[C@@H](C)CC)C(C)C)C(C)C)C(=O)N[C@@H](Cc1c[nH]c2ccccc12)C(=O)N[C@@H](CCCNC(=N)N)C(=O)N[C@@H](CCCNC(=N)N)C(N)=O` (H-VR[Dap]IVAVRIWRR-NH2), in experiment [1], the inhibition entry is “Dose-dependent effect”. Further, the “residual biofilm growth (% of control)” value in experiment [2] is listed as 104.7%. In addition, the outcome in experiment [3] was Active.

As for `CC[C@H](C)[C@H](NC(=O)[C@H](CCCNC(=N)N)NC(=O)[C@@H](NC(=O)[C@H](C)NC(=O)[C@@H](NC(=O)[C@@H](NC(=O)[C@H](CCCN)NC(=O)[C@H](CCCNC(=N)N)NC(=O)[C@@H](N)C(C)C)[C@@H](C)CC)C(C)C)C(C)C)C(=O)N[C@@H](Cc1c[nH]c2ccccc12)C(=O)N[C@@H](CCCNC(=N)N)C(=O)N[C@@H](CCCNC(=N)N)C(N)=O` (H-VR[Orn]IVAVRIWRR-NH2), the inhibition result in experiment [1] is “Dose-dependent effect”. Further, the “residual biofilm growth (% of control)” value in experiment [2] worked out at 99.3%. In addition, in experiment [3], the outcome was Active.

Regarding `CC[C@H](C)[C@H](NC(=O)[C@H](CCCNC(=N)N)NC(=O)[C@@H](NC(=O)[C@H](C)NC(=O)[C@@H](NC(=O)[C@@H](NC(=O)[C@H](CCCCNC(=N)N)NC(=O)[C@H](CCCNC(=N)N)NC(=O)[C@@H](N)C(C)C)[C@@H](C)CC)C(C)C)C(C)C)C(=O)N[C@@H](Cc1c[nH]c2ccccc12)C(=O)N[C@@H](CCCNC(=N)N)C(=O)N[C@@H](CCCNC(=N)N)C(N)=O` (H-VR[hArg]IVAVRIWRR-NH2), the inhibition entry in experiment [1] is “Dose-dependent effect”. Besides, the “residual biofilm growth (% of control)” value in experiment [2] is 108.6%. The outcome in experiment [3] was Active.

Turning to `CC[C@H](C)[C@H](NC(=O)[C@H](CCCNC(=N)N)NC(=O)[C@@H](NC(=O)[C@H](C)NC(=O)[C@@H](NC(=O)[C@@H](NC(=O)[C@H](CC(C)C)NC(=O)[C@H](CCNC(=N)N)NC(=O)[C@@H](N)C(C)C)[C@@H](C)CC)C(C)C)C(C)C)C(=O)N[C@@H](Cc1c[nH]c2ccccc12)C(=O)N[C@@H](CCCNC(=N)N)C(=O)N[C@@H](CCCNC(=N)N)C(N)=O` (H-V[Agb]LIVAVRIWRR-NH2), the inhibition result in experiment [1] is “Dose-dependent effect”. Further, the “residual biofilm growth (% of control)” value in experiment [2] came to 29.6%. In addition, the outcome in experiment [3] was Active.

`CC[C@H](C)[C@H](NC(=O)[C@H](CCCNC(=N)N)NC(=O)[C@@H](NC(=O)[C@H](C)NC(=O)[C@@H](NC(=O)[C@@H](NC(=O)[C@H](CC(C)C)NC(=O)[C@H](CNC(=N)N)NC(=O)[C@@H](N)C(C)C)[C@@H](C)CC)C(C)C)C(C)C)C(=O)N[C@@H](Cc1c[nH]c2ccccc12)C(=O)N[C@@H](CCCNC(=N)N)C(=O)N[C@@H](CCCNC(=N)N)C(N)=O` (H-V[Agp]LIVAVRIWRR-NH2): the inhibition entry in experiment [1] is “Dose-dependent effect”. For the same molecule, the “residual biofilm growth (% of control)” value in experiment [2] is reported as 28.3%. In addition, in experiment [3], the result was Active.

For `CC[C@H](C)[C@H](NC(=O)[C@H](CCCNC(=N)N)NC(=O)[C@@H](NC(=O)[C@H](C)NC(=O)[C@@H](NC(=O)[C@@H](NC(=O)[C@H](CC(C)C)NC(=O)[C@H](CCN)NC(=O)[C@@H](N)C(C)C)[C@@H](C)CC)C(C)C)C(C)C)C(=O)N[C@@H](Cc1c[nH]c2ccccc12)C(=O)N[C@@H](CCCNC(=N)N)C(=O)N[C@@H](CCCNC(=N)N)C(N)=O` (H-V[Dab]LIVAVRIWRR-NH2), the inhibition result in experiment [1] was “Dose-dependent effect”. For the same molecule, in experiment [2], the “residual biofilm growth (% of control)” value is 21.5%. The outcome in experiment [3] was Active.
